# Experimental data reported in patent publication US6193985A, “Tocopherol compositions for delivery of biologically active agents” (priority 1994, dated 2001).
# Like-named read-outs stand apart in the source and are kept apart here.
# Assays:
# [1] = Description: For the following, non-limiting, sparingly soluble drugs in water, the solubility in α-tocopherol and sesame oil are listed in Table 1:
# Sesame oil was chosen as the reference, because it is a very commonly used and well tolerated vegetable oil. The solubilities in sesame oil and α-tocopherol were investigated by visual inspection of the saturation point.
# [2] = cited from earlier work
# [3] = cited from earlier work; remark: listed apart in the source
# [4] = solubility in sesame oil (reference)
smiles,measurement,setting,value
"Cc1ncc2n1-c1ccc(Cl)cc1C(c1ccccc1F)=NC2 [Midazolam, midazolam]",g drug in 100 g of α-tocopherol,[1]; solubility in α-tocopherol,> 13 g drug in 100 g
same,first-pass effect,[2]; after oral administration,very high first-pass effect
"C(=C\c1ccccc1)/CN1CCN(C(c2ccccc2)c2ccccc2)CC1 [Cinnarizine, cinnarizine]",g drug in 100 g of sesame oil,[1],2-4 g drug in 100 g
same,g drug in 100 g of α-tocopherol,[1],11-18 g drug in 100 g
same,oral bioavailability,[2]; if dissolved in a vehicle before administration,higher oral bioavailability
same,solubility in water (in words),[3],very low water solubility
"CCCC1O[C@@H]2C[C@H]3[C@@H]4CCC5=CC(=O)C=C[C@]5(C)[C@H]4[C@@H](O)C[C@]3(C)[C@]2(C(=O)CO)O1 (stereo partly shown) [Budesonide, budesonide]",g drug in 100 g of sesame oil,[1]; [4],< 0.1 g drug in 100 g
"CCN(CC)C(=S)SSC(=S)N(CC)CC [Disulfiram, disulfiram]",g drug in 100 g of α-tocopherol,[1]; solubility in α-tocopherol,5 g drug in 100 g
"Clc1ccc(COC(Cn2ccnc2)c2ccc(Cl)cc2Cl)c(Cl)c1 (stereo not shown) [Miconazole, miconazole]",g drug in 100 g of α-tocopherol,[1]; solubility in α-tocopherol,60 g drug in 100 g
CC(=O)[C@H]1CC[C@H]2[C@@H]3CCC4=CC(=O)CC[C@]4(C)[C@H]3CC[C@]12C [Progesterone],g drug in 100 g of α-tocopherol,[1]; solubility in α-tocopherol,> 30 g drug in 100 g
Cc1ncc([N+](=O)[O-])n1CCOC(=O)c1ccccc1 [Metronidazole benzoate],g drug in 100 g of sesame oil,[1]; [4],< 2 g drug in 100 g
CCN(CC)CCNC(=O)c1cc(Cl)c(N)cc1OC [Metoclopramide],g drug in 100 g of sesame oil,[1],< 2 g drug in 100 g
same,g drug in 100 g of α-tocopherol,[1],2-4 g drug in 100 g
